Data from the NIST ThermoML archive (doi:10.1021/je200111a).
± gives the expanded uncertainty stated by the source.

Tests used:
[1] = Liquid; for mass density: 298.15 K, 101.33 kPa; for vapor or sublimation pressure: Ebulliometric method (Recirculating still)
[2] = refractive index (Na D-line) (dimensionless); settings: 298.15 K; 101.33 kPa; Liquid; Standard Abbe refractometry

Compound | mass density [1] [kg/m3] | vapor or sublimation pressure ([1]; 353.75 K) [kPa] | vapor or sublimation pressure ([1]; 403.75 K) [kPa] | refractive index [2] | vapor or sublimation pressure ([1]; 366.55 K) [kPa] | vapor or sublimation pressure ([1]; 366.65 K) [kPa] | vapor or sublimation pressure ([1]; 427.62 K) [kPa] | vapor or sublimation pressure ([1]; 427.65 K) [kPa] | vapor or sublimation pressure ([1]; 358.35 K) [kPa] | vapor or sublimation pressure ([1]; 411.05 K) [kPa]
CC(C)CCO [3-methylbutan-1-ol] | 807.6 ± 0.4 | 13 ± 0.16 | 101.3 ± 1.7 | 1.4051 ± 0.0007 | – | – | – | – | – | –
CCOC(=O)[C@H](C)O [(S)-(-)-ethyl lactate] | 1028.6 ± 0.2 | – | – | 1.41057 ± 0.00072 | 13 ± 0.2 | 13 ± 0.2 | 101.3 ± 2 | 101.3 ± 2 | – | –
CCCCCO [pentan-1-ol] | 811.2 ± 0.4 | – | – | 1.4077 ± 0.0007 | – | – | – | – | 13 ± 0.17 | 101.3 ± 1.8
